{"source": "paper PMC4355058", "about": "(Analytical biochemistry, 2014)", "key": {"A2a-8M receptor": {"target": "A2a-8M receptor (Homo sapiens, UniProt P29274, A54L/K122A/L202A/L235A/N154A/R107A/S277A/T88A/V239A)", "sequence (P29274 1-316 A54L/T88A/R107A/K122A/N154A/L202A/L235A/V239A/S277A)": "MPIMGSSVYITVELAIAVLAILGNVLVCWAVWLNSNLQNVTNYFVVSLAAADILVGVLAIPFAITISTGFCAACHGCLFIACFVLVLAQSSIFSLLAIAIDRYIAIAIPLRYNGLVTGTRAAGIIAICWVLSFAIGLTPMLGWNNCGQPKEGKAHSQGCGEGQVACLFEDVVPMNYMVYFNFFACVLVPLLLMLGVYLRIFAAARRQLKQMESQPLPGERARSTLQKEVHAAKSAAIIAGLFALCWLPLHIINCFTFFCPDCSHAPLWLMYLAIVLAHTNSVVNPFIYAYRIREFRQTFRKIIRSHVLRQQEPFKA", "assay": "Isothermal chemical denaturation"}, "WT A2a receptor": {"system": "WT A2a receptor", "conditions": "cited from earlier work"}, "A2a-8M [1]": {"target": "A2a-8M (Homo sapiens, UniProt P29274, A54L/K122A/L202A/L235A/R107A/S277A/T88A/V239A)", "sequence (P29274 1-317 A54L/T88A/R107A/K122A/L202A/L235A/V239A/S277A)": "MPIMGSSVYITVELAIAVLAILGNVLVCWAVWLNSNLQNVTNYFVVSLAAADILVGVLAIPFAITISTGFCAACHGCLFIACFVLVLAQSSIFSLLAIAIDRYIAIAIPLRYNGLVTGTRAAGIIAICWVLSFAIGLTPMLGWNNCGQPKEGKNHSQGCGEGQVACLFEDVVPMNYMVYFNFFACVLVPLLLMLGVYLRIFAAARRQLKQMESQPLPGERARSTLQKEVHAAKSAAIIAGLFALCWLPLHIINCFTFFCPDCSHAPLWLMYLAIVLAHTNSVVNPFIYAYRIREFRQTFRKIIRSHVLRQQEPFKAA", "assay": "SPR analysis of small molecule binding"}, "A2aR": {"target": "A2aR", "conditions": "read-out: Kd, SPR study at 10°C; cited from earlier work"}, "A2a-8M [2]": {"target": "A2a-8M", "assay": "SPR analysis of small molecule binding", "conditions": "read-out: SPR Kd"}, "[3]": {"conditions": "[L] = 21 μM, 25°C, 338 nm, apo 1.37"}, "[4]": {"conditions": "[L] = 21 μM, 25°C, 338 nm, apo 2.90"}, "[5]": {"conditions": "[L] = 21 μM, 25°C, protein […], 338 nm, apo 3.96"}, "[6]": {"conditions": "[L] = 2 μM, 25°C, 338 nm (SCH58261 at 316 nm), apo 2.90 (338 nm), 2.88 (316 nm)"}, "[7]": {"conditions": "[L] = 2 μM, 25°C, 338 nm (SCH58261 at 316 nm), apo 1.37"}}, "note": "Structures can show the parent of a compound that is named as a salt. Where two headings read alike, the source gives them in different places."}
{"smiles": "CCOc1nc2c(N)ncnc2n1CC", "note": "[ANR94]", "values": [{"measurement": "m", "setting": "A2a-8M receptor; [3]", "result": 1.65, "unit": "kcal/mol×M"}, {"measurement": "C½ (midpoint of denaturation curve)", "setting": "A2a-8M receptor; [4]", "result": 3.53, "unit": "M GuHCl"}, {"measurement": "ΔG (Gibbs energy of protein stability in presence of ligand)", "setting": "A2a-8M receptor; [5]", "result": 5.82, "unit": "kcal/mol"}]}
{"smiles": "CCNC(=O)[C@H]1O[C@@H](n2cnc3c(N)nc(NCCc4ccc(CCC(=O)O)cc4)nc32)[C@H](O)[C@@H]1O", "note": "[CGS21680]", "values": [{"measurement": "binding affinity", "setting": "WT A2a receptor", "result": "> 10", "unit": "µM"}]}
{"smiles": "Cn1c(=O)c2c(ncn2C)n(C)c1=O", "note": "[Caffeine]", "values": [{"measurement": "C½ (midpoint of denaturation curve)", "setting": "A2a-8M receptor; [6]", "result": 3.28, "unit": "M GuHCl"}]}
{"smiles": "N=C(N)NC(=O)Cc1c(Cl)cccc1Cl", "note": "[Guanfacine HCl]", "values": [{"measurement": "m", "setting": "A2a-8M receptor; [3]", "result": 1.37, "unit": "kcal/mol×M"}, {"measurement": "C½ (midpoint of denaturation curve)", "setting": "A2a-8M receptor; [4]", "result": 2.25, "unit": "M GuHCl"}, {"measurement": "ΔG (Gibbs energy of protein stability in presence of ligand)", "setting": "A2a-8M receptor; [5]", "result": 3.08, "unit": "kcal/mol"}]}
{"smiles": "CCCCC#Cc1nc(NC)c2ncn([C@@H]3O[C@H](CO)[C@@H](O)[C@H]3O)c2n1", "note": "[Hemado]", "values": [{"measurement": "m", "setting": "A2a-8M receptor; [3]", "result": 1.77, "unit": "kcal/mol×M"}, {"measurement": "C½ (midpoint of denaturation curve)", "setting": "A2a-8M receptor; [4]", "result": 2.59, "unit": "M GuHCl"}, {"measurement": "ΔG (Gibbs energy of protein stability in presence of ligand)", "setting": "A2a-8M receptor; [5]", "result": 4.59, "unit": "kcal/mol"}]}
{"smiles": "N#Cc1c(N)nc(SCc2ncc[nH]2)c(C#N)c1-c1ccc(O)cc1", "note": "[LUF5834]", "values": [{"measurement": "m", "setting": "A2a-8M receptor; [7]", "result": 1.90, "unit": "kcal/mol×M"}, {"measurement": "C½ (midpoint of denaturation curve)", "setting": "A2a-8M receptor; [6]", "result": 3.18, "unit": "M GuHCl"}]}
{"smiles": "CCO/C(O)=C1\\C(C)=NC(c2ccccc2)=C(C(=O)OCc2ccc([N+](=O)[O-])cc2)C1C#Cc1ccccc1", "note": "(stereo not shown) [MRS1334]", "values": [{"measurement": "Kd", "setting": "A2a-8M [1]", "result": 5900, "unit": "nM"}, {"measurement": "Kd", "setting": "A2a-8M receptor", "result": 5500, "unit": "nM"}, {"measurement": "m", "setting": "A2a-8M receptor; [7]", "result": 1.30, "unit": "kcal/mol×M"}, {"measurement": "C½ (midpoint of denaturation curve)", "setting": "A2a-8M receptor; [6]", "result": 3.20, "unit": "M GuHCl"}]}
{"smiles": "Nc1nc(SCCc2ccc(S(=O)(=O)O)cc2)nc2c1ncn2[C@@H]1O[C@H](CO)[C@@H](O)[C@H]1O", "note": "[PSB0777]", "values": [{"measurement": "m", "setting": "A2a-8M receptor; [3]", "result": 1.56, "unit": "kcal/mol×M"}, {"measurement": "C½ (midpoint of denaturation curve)", "setting": "A2a-8M receptor; [4]", "result": 2.22, "unit": "M GuHCl"}, {"measurement": "ΔG (Gibbs energy of protein stability in presence of ligand)", "setting": "A2a-8M receptor; [5]", "result": 3.47, "unit": "kcal/mol"}]}
{"smiles": "CCCn1c(=O)[nH]c2nc(-c3ccc(S(=O)(=O)O)cc3)[nH]c2c1=O", "note": "[PSB1115]", "values": [{"measurement": "m", "setting": "A2a-8M receptor; [7]", "result": 1.63, "unit": "kcal/mol×M"}, {"measurement": "C½ (midpoint of denaturation curve)", "setting": "A2a-8M receptor; [6]", "result": 3.82, "unit": "M GuHCl"}, {"measurement": "Kd", "setting": "A2aR", "result": 158, "unit": "nM"}]}
{"smiles": "Nc1nc2c(cnn2CCc2ccccc2)c2nc(-c3ccco3)nn12", "note": "[SCH58261]", "values": [{"measurement": "Kd", "setting": "A2a-8M [2]", "result": 14, "unit": "nM"}, {"measurement": "C½ (midpoint of denaturation curve)", "setting": "A2a-8M receptor", "result": 3.91, "unit": "M GuHCl"}, {"measurement": "m", "setting": "A2a-8M receptor", "result": 1.80, "unit": "kcal/mol×M"}, {"measurement": "ΔG (Gibbs energy of protein stability in presence of ligand)", "setting": "A2a-8M receptor", "result": 7.01, "unit": "kcal/mol"}]}
{"smiles": "COc1ccc(CCCn2ncc3c2nc(N)n2nc(-c4ccco4)nc32)cc1", "note": "[SCH442416]", "values": [{"measurement": "binding affinity", "setting": "WT A2a receptor", "result": 50, "unit": "pm"}]}
{"smiles": "CN1CCc2cccc(Cl)c2CC1.Cl", "note": "[SKF86466 HCl]", "values": [{"measurement": "m", "setting": "A2a-8M receptor; [3]", "result": 1.55, "unit": "kcal/mol×M"}, {"measurement": "C½ (midpoint of denaturation curve)", "setting": "A2a-8M receptor; [4]", "result": 2.18, "unit": "M GuHCl"}, {"measurement": "ΔG (Gibbs energy of protein stability in presence of ligand)", "setting": "A2a-8M receptor; [5]", "result": 3.38, "unit": "kcal/mol"}]}
{"smiles": "COC1CCN(c2cccc(-c3cc(NC(C)=O)nc(-n4nc(C)cc4C)n3)n2)CC1", "note": "[TC-G1004]", "values": [{"measurement": "m", "setting": "A2a-8M receptor; [L] = 0.4 μM, 25°C, 338 nm (SCH442416 at 316 nm), apo 1.37", "result": 1.42, "unit": "kcal/mol×M"}]}
{"smiles": "c1ccc(NCc2ccc(CNc3ccccn3)cc2)nc1", "note": "[WZ811]", "values": [{"measurement": "m", "setting": "A2a-8M receptor; [7]", "result": 1.19, "unit": "kcal/mol×M"}, {"measurement": "C½ (midpoint of denaturation curve)", "setting": "A2a-8M receptor; [6]", "result": 2.98, "unit": "M GuHCl"}]}
{"smiles": "Cl.Cl.OCCOCCN1CCN(Cc2cccc(Oc3ccccc3)c2)CC1", "note": "[ZK756326]", "values": [{"measurement": "m", "setting": "A2a-8M receptor; [3]", "result": 1.50, "unit": "kcal/mol×M"}, {"measurement": "C½ (midpoint of denaturation curve)", "setting": "A2a-8M receptor; [4]", "result": 3.41, "unit": "M GuHCl"}, {"measurement": "ΔG (Gibbs energy of protein stability in presence of ligand)", "setting": "A2a-8M receptor; [5]", "result": 5.11, "unit": "kcal/mol"}]}
